{
  "source": "patent US20140363484A1",
  "about": "“FIBROUS BIO-DEGRADABLE POLYMERIC WAFERS SYSTEM FOR THE LOCAL DELIVERY OF THERAPEUTIC AGENTS IN COMBINATIONS” (Amrita Vishwa Vidyapeetham, priority 2012, published 2014)",
  "origin": "cited, not measured here",
  "conditions": "under physiological conditions",
  "data": [
    {"smiles": "Cn1nnc2c(C(N)=O)ncn2c1=O", "note": "[temozolomide]", "values": [
      {"measurement": "half-life", "result": 1.8, "unit": "h"}
    ]}
  ]
}
